These molecules were tested against T1, human NaV1.3 (Homo sapiens, UniProt Q9NY46) (assay: FRET assay (EFS, FDSS) on HEK293 cells expressing human NaV1.3 channels). Details: FRET assay, HEK293 cells expressing human NaV1.3; read-out: IC50 against Nav1.3.
T1 construct: expressed in transfected cells; host or cells: HEK293
Assay type: cell-based
Procedure: (§1) This screen was used to determine the effects of compounds on human NaV1.3, human Nav1.7, and human Nav1.5 channels, utilising electrical field stimulation (EFS) system in 96-well plate format on FDSS (Hamamatsu Photonics) platform. The change of membrane potential was monitored with FRET dye pair, oxonol (DiSBAC2(3)) and coumarin (CC2-DMPE).
Each HEK293 cells expressing human NaV1.3 channels and HEK293 cells expressing human NaV1.5 channels were grown in T225 flasks, in a 5% CO2 humidified incubator to about 80% confluence. Media composition consisted of Dulbecco's Modified Eagle Medium (high glucose), 10% FCS, 100 units/ml Penicillin, 100 microgram/ml Streptomycin and 500 microgram/ml Geneticine.
(§2) Protocol: • Seeded each cell lines (1×10^5 cells/well) into poly-D-lysine coated 96-well plates prior to experimentation. • Incubated at 37° C. in 5% CO2 for 24 hours. • Washed each well with assay buffer (140 mM NaCl, 4.5 mM KCl, 10 mM D-Glucose, 2 mM CaCl2, 1 mM MgCl2, 10 mM HEPES, pH 7.4 adjusted with NaOH) twice. • Added 1st loading solution containing 10 microM CC2-DMPE and 0.06% Pluronic F-127 in assay buffer. • Incubated the plate at room temperature in dark for 1 hour. • Removed 1st loading solution and added 2nd loading solution containing 15 microM DiSBAC2(3), 0.555 mM VABSC-1 and 0.004% Pluronic F-127 in assay buffer. • Placed the plate under the dark at room temperature for 25 minutes. • Added compound solutions into the assay plate. • Set the assay plate in FDSS and placed an EFS device on the plate. • Measured EFS-induced fluorescent response by FDSS.
(§3) The data were analyzed and reported as normalized ratios of intensities measured at […]. The process of calculating these ratios was performed as follows:
(§4) [formula] This analysis was performed using a computerized specific program designed for FDSS generated data. Fluorescence ratio values were plotted using XLfit to determine an IC50 value for each compound.

T1 sequence (Q9NY46 whole entry): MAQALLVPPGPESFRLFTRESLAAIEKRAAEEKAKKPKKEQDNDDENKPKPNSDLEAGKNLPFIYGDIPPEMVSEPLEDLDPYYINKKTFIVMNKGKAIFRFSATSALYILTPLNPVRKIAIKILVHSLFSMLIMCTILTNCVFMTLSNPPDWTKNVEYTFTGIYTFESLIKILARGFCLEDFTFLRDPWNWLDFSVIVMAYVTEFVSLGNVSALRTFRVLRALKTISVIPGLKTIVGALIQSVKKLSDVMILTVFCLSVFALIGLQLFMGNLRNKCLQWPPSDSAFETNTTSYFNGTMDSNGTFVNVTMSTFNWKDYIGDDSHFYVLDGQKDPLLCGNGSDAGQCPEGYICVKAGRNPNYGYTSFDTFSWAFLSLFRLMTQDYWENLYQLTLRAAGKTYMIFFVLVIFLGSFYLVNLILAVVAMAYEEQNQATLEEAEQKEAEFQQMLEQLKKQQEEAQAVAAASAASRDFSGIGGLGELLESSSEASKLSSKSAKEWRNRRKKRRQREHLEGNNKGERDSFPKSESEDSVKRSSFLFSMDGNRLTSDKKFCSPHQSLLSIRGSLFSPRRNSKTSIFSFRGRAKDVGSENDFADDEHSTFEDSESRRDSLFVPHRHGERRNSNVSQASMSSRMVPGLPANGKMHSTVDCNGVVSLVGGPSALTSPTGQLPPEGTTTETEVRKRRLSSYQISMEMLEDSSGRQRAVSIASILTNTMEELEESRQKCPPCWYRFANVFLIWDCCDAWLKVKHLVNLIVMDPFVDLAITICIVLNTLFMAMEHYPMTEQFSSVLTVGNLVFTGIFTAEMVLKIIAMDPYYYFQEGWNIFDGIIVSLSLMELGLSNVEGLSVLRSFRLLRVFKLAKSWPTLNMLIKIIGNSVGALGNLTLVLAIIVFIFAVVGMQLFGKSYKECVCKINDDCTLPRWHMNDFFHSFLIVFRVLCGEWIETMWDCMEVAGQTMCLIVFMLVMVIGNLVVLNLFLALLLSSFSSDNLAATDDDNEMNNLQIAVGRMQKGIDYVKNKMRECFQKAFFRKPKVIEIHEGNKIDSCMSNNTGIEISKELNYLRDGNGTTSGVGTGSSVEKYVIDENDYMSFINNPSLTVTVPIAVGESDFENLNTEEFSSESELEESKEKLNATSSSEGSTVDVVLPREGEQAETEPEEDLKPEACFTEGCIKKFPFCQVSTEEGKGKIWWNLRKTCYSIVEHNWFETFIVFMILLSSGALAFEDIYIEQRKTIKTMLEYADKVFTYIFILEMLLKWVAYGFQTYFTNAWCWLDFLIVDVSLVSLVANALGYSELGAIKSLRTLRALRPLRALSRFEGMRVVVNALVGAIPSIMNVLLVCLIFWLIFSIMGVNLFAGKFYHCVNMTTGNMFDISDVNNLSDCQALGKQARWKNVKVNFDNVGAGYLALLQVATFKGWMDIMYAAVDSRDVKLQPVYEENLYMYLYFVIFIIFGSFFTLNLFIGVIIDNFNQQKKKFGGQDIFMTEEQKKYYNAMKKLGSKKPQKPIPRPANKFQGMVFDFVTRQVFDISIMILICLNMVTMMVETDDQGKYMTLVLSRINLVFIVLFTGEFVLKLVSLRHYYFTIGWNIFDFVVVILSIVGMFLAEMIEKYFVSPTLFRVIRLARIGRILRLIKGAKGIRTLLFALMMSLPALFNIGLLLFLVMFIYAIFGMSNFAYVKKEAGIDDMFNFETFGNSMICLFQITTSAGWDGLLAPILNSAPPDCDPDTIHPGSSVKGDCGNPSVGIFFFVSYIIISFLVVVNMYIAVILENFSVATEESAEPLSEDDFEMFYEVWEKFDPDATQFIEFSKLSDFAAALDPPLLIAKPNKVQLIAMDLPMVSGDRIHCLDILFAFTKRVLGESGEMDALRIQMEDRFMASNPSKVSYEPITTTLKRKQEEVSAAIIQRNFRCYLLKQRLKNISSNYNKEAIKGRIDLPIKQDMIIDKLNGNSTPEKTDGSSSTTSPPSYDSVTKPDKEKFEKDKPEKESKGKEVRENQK

IC50, < 3 µM:
CC(C)COc1cc(N2CCN(C(=O)c3ccc(-n4cccn4)nc3)CC2)ncn1 [Example 214, (6-(1H-pyrazol-1-yl)pyridin-3-yl)(4-(6-isobutoxypyrimidin-4-yl)piperazin-1-yl)methanone]
CC(C)COc1cc(N2CCN(C(=O)c3cnn(-c4ccccc4)c3)CC2)ncn1 [Example 215, (4-(6-isobutoxypyrimidin-4-yl)piperazin-1-yl)(1-phenyl-1H-pyrazol-4-yl)methanone]
CCn1nc(C(F)(F)F)cc1C(=O)N1CCN(c2cc(OCC(C)C)ncn2)CC1 [Example 217, (1-ethyl-3-(trifluoromethyl)-1H-pyrazol-5-yl)(4-(6-isobutoxypyrimidin-4-yl)piperazin-1-yl)methanone]
Cc1c(C(=O)N2CCN(c3cc(OC4CCC4)ncn3)CC2)nnn1-c1ccccc1 [Example 219, (4-(6-cyclobutoxypyrimidin-4-yl)piperazin-1-yl)(5-methyl-1-phenyl-1H-1,2,3-triazol-4-yl)methanone]
O=C(Cn1nc2ccccc2n1)N1CCN(c2cc(OC3CCC3)ncn2)CC1 [Example 220, 2-(2H-benzo[d][1,2,3]triazol-2-yl)-1-(4-(6-cyclobutoxypyrimidin-4-yl)piperazin-1-yl)ethanone]
CCn1nc(C(=O)N2CCN(c3cc(OCC(C)C)ncn3)CC2)cc1C(F)(F)F [Example 228, (1-ethyl-5-(trifluoromethyl)-1H-pyrazol-3-yl)(4-(6-isobutoxypyrimidin-4-yl)piperazin-1-yl)methanone]
CCOc1cccc(C(=O)N2CCN(c3cc(OCC(C)C)ncn3)CC2)n1 [Example 231, (6-ethoxypyridin-2-yl)(4-(6-isobutoxypyrimidn-4-yl)piperazin-1-yl)methanone]
CC(C)COc1cc(N2CCN(C(=O)c3cccc(OCC(F)(F)F)n3)CC2)ncn1 [Example 232, (4-(6-isobutoxypyrimidin-4-yl)piperazin-1-yl)(6-(2,2,2-trifluoroethoxy)pyridin-2-yl)methanone]
CC(C)COc1cc(N2CCN(C(=O)c3csc(C(C)C)n3)CC2)ncn1 [Example 233, (4-(6-isobutoxypyrimidin-4-yl)piperazin-1-yl)(2-isopropylthiazol-4-yl)methanone]
CCOc1cc(N2CCN(C(=O)c3csc(-c4ccccn4)n3)CC2)ncn1 [Example 241, (4-(6-ethoxypyrimidin-4-yl)piperazin-1-yl)(2-(pyridin-2-yl)thiazol-4-yl)methanone]

Each molecule was assayed against T2, human Nav1.7 (Homo sapiens, UniProt Q15858) (assay: FRET assay (EFS, FDSS) on CHO cells expressing human NaV1.7 channels). Details: FRET assay, CHO cells expressing human NaV1.7; read-out: IC50 against Nav1.7.
T2 construct: expressed in transfected cells; host or cells: CHO
Assay type: cell-based
Procedure: as §1
CHO cells expressing human NaV1.7 channels were grown in T225 flasks, in a 5% CO2 humidified incubator to about 80% confluence. Media composition consisted of HAM/F12 with Glutamax I, 10% FCS, 100 units/ml Penicillin and 100 microgram/ml Hygromycin.
as §2, §3, §4

T2 sequence (Q15858 whole entry): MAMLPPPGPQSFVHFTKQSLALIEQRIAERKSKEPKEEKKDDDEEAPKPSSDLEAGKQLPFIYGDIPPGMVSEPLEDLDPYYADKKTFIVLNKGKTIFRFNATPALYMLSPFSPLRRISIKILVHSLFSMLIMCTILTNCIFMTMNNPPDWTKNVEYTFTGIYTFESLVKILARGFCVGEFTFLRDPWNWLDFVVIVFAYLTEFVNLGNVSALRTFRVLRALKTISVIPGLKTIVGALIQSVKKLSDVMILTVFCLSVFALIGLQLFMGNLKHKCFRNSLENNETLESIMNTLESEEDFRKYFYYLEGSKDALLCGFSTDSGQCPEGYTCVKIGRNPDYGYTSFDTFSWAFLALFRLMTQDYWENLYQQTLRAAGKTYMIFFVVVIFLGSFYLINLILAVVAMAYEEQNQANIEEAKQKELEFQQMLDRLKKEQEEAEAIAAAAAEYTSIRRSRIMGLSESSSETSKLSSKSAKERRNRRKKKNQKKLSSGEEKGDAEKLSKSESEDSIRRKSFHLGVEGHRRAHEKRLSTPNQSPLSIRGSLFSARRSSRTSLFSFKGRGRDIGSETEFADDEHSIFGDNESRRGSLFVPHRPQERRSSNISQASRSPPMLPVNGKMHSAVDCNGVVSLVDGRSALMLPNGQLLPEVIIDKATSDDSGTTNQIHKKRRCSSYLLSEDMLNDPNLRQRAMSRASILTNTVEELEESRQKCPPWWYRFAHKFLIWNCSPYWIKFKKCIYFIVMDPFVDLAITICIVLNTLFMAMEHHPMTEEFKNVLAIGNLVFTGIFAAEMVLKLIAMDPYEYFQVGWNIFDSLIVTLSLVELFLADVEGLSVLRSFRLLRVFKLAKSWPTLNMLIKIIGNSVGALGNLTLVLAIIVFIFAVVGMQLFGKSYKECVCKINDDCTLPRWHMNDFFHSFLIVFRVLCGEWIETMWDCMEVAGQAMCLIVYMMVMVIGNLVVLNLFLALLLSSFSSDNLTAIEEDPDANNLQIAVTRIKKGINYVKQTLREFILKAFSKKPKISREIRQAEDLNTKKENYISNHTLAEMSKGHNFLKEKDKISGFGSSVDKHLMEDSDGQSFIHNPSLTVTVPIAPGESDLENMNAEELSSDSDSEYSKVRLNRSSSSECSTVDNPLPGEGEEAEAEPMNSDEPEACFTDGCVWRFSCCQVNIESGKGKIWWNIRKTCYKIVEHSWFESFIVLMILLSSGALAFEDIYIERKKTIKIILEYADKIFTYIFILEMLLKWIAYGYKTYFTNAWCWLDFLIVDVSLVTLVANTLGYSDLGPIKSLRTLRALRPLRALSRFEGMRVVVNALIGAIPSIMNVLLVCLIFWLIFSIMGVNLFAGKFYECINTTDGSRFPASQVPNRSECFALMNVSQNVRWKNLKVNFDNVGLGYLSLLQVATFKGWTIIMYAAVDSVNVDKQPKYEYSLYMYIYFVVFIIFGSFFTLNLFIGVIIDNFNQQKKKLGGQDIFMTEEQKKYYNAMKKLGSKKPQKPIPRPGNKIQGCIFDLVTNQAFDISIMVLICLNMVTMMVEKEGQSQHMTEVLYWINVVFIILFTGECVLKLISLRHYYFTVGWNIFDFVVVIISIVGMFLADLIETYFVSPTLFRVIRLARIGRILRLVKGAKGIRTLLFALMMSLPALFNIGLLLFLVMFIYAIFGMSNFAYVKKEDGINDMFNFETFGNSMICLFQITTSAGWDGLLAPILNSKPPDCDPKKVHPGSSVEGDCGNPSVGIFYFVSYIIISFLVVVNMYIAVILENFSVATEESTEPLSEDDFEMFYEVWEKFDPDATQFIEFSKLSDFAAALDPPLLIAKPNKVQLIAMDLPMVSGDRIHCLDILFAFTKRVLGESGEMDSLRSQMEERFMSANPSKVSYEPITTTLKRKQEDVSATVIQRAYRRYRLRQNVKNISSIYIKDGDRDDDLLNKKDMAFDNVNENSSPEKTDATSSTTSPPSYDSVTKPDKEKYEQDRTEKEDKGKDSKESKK

IC50, < 3 µM:
Cc1ccc(C(=O)N2CCN(c3cc(OCC(F)(F)F)ncn3)CC2)cc1F [Example 8, 3-(fluoro-4-methylphenyl)(4-(6-(2,2,2-trifluoroethoxy)pyrimidin-4-yl)piperazin-1-yl)methanone]
CC(C)COc1cc(N2CCN(C(=O)[C@@H](NC(=O)OC(C)(C)C)c3ccccc3)CC2)ncn1 [Example 10, (S)-tert-butyl (2-(4-(6-isobutoxypyrimidin-4-yl)piperazin-1-yl)-2-oxo-1-phenylethyl)carbamate]
CC(C)COc1cc(N2CCN(C(=O)[C@@H](N)c3ccccc3)CC2)ncn1 [Example 27, (S)-2-amino-1-(4-(6-isobutoxypyrimidin-4-yl)piperazin-1-yl)-2-phenylethanone]
CC(C)COc1cc(N2CCN(C(=O)c3ccc4cccc(O)c4n3)CC2)ncn1 [Example 32, (8-hydroxyquinolin-2-yl)(4-(6-isobutoxypyrimidin-4-yl)piperazin-1-yl)methanone]
CC(C)COc1cc(N2CCN(C(=O)c3ccc(Cl)c(F)c3)CC2)ncn1 [Example 39, (4-chloro-3-fluorophenyl)(4-(6-isobutoxypyrimidin-4-yl)piperazin-1-yl)methanone]
CC(C)COc1cc(N2CCN(C(=O)c3ccc(C(F)(F)F)cc3O)CC2)ncn1 [Example 42, (2-hydroxy-4-(trifluoromethyl)phenyl)(4-(6-isobutoxypyrimidin-4-yl)piperazin-1-yl)methanone]
CC(C)COc1cc(N2CCN(C(=O)c3cc4ccccc4n3C)CC2)ncn1 [Example 43, (4-(6-isobutoxypyrimidin-4-yl)piperazin-1-yl)(1-methyl-1H-indol-2-yl)methanone]
CC(C)COc1cc(N2CCN(C(=O)Cc3c[nH]c4ccc(F)cc34)CC2)ncn1 [Example 60, 2-(5-fluoro-1H-indol-3-yl)-1-(4-(6-isobutoxypyrimidin-4-yl)piperazin-1-yl)ethanone]
O=C(c1ccc2cccc(O)c2n1)N1CCN(c2cc(OCC(F)(F)F)ncn2)CC1 [Example 65, (8-hydroxyquinolin-2-yl)(4-(6-(2,2,2-trifluoroethoxy)pyrimidin-4-yl)piperazin-1-yl)methanone]
CC(C)COc1cc(N2CCN(C(=O)CNC(=O)c3cccc4[nH]ccc34)CC2)ncn1 [Example 75, N-(2-(4-(6-isobutoxypyrimidin-4-yl)piperazin-1-yl)-2-oxoethyl)-1H-indole-4-carboxamide]
CC(C)COc1cc(N2CCN(C(=O)CNC(=O)c3nn(C)c4ccccc34)CC2)ncn1 [Example 76, N-(2-(4-(6-isobutoxypyrimidin-4-yl)piperazin-1-yl)-2-oxoethyl)-1-methyl-1H-indazole-3-carboxamide]
CC(C)COc1cc(N2CCN(C(=O)CNC3CCCCC3)CC2)ncn1 [Example 100, 2-(cyclohexylamino)-1-(4-(6-isobutoxypyrimidin-4-yl)piperazin-1-yl)ethanone]
CC(C)COc1cc(N2CCN(C(=O)Cc3c[nH]c4ccccc34)CC2)ncn1 [Example 102, 2-(1H-indol-3-yl)-1-(4-(6-isobutoxypyrimidin-4-yl)piperazin-1-yl)ethanone]
O=C(Cc1c[nH]c2ccc(F)cc12)N1CCN(c2cc(OCC(F)(F)F)ncn2)CC1 [Example 110, 2-(5-fluoro-1H-indol-3-yl)-1-(4-(6-(2,2,2-trifluoroethoxy)pyrimidin-4-yl)piperazin-1-yl)ethanone]
CC(C)COc1cc(N2CCN(C(=O)COc3cccc4[nH]ccc34)CC2)ncn1 [Example 137, 2-((1H-indol-4-yl)oxy)-1-(4-(6-isobutoxypyrimidin-4-yl)piperazin-1-yl)ethanone]
CC(C)COc1cc(N2CCN(C(=O)COc3ccccc3C(F)(F)F)CC2)ncn1 [Example 143, 1-(4-(6-isobutoxypyrimidin-4-yl)piperazin-1-yl)-2-(2-(trifluoromethyl)phenoxy)ethanone]
O=C(COc1cccc2cccnc12)N1CCN(c2cc(OCC(F)(F)F)ncn2)CC1 [Example 156, 2-(quinolin-8-yloxy)-1-(4-(6-(2,2,2-trifluoroethoxy)pyrimidin-4-yl)piperazin-1-yl)ethanone]
CC(C)COc1cc(N2CCN(C(=O)COc3ccc4ccccc4n3)CC2)ncn1 [Example 160, 1-(4-(6-isobutoxypyrimidin-4-yl)piperazin-1-yl)-2-(quinolin-2-yloxy)ethanone]
O=C(c1csc(-c2ccccc2)n1)N1CCN(c2cc(OCC(F)(F)F)ncn2)CC1 [Example 166, (2-phenylthiazol-4-yl)(4-(6-(2,2,2-trifluoroethoxy)pyrimidin-4-yl)piperazin-1-yl)methanone]
COc1ccccc1-c1cc(C(=O)N2CCN(c3cc(OCC(C)C)ncn3)CC2)[nH]n1 [Example 175]
CC(C)COc1cc(N2CCN(C(=O)Cn3ccc4ccccc4c3=O)CC2)ncn1 [Example 236, 2-(2-(4-(6-isobutoxypyrimidin-4-yl)piperazin-1-yl)-2-oxoethyl)isoquinolin-1(2H)-one]
O=C(c1cncn1-c1ccccc1C(F)(F)F)N1CCN(c2cc(OCC(F)(F)F)ncn2)CC1 [Example 243, (4-(6-(2,2,2-trifluoroethoxy)pyrimidin-4-yl)piperazin-1-yl)(1-(2-(trifluoromethyl)phenyl)-1H-imidazol-5-yl)methanone]

From patent publication US8999974B2, “Acyl piperazine derivatives as TTX-S blockers” (Raqualia Pharma Inc., priority 2010, dated 2015)
